Laboratory results reported in patent US9682955B2, “Quinazoline derivatives useful as CB-1 inverse agonists” (Janssen Pharmaceutica NV, priority 2014, dated 2017).

Tests used:
[1] = biological target: Human CB1R (Cannabanoid receptor 1) (Homo sapiens (Human), UniProt P21554); assay: CB-1 in vitro cAMP assay (HTRF); assay type: cell-based; details: mean where tested more than once
Source text: (§1) CB1 and CB2 receptors are Gi-coupled GPCR. Activation of CB1 and CB2 receptors results in a decrease in cAMP production. An inverse agonist of the CB1 or CB2 receptor results in the opposite effect, an increase of cAMP production. The principle of this assay is based on HTRF® technology (Homogeneous Time-Resolved Fluorescence). The method is a competitive immunoassay between native cAMP produced by cells and the cAMP labeled with the fluorophore d2. The tracer binding is quantified by a Mab anti-cAMP labeled with Eu3+TBP-NHS Cryptate (supplied as part of the assay kit). The specific signal (i.e. energy transfer) is inversely proportional to the concentration of cAMP in the standard or sample.
(§2) Human CB1R (Cannabanoid receptor 1) was stably transfected in HEK-293 cells (DiscoveRx, cat: 93-0200C1). Human CB2R (Cannabanoid receptor 2) was stably transfected in HEK-293 cells (DiscoveRx, cat: 93-0201C1). Cell cultures were maintained in media: DMEM (Invitrogen Cat#12430-054) supplemented with 10% HI FBS (Invitrogen Cat#16140-071), 1% L-glutamine (Invitrogen Cat#25030-081), 0.2 mg/ml Hygromycin B (Invitrogen Cat#10687-010), 600 μg/mL G418 (Invitrogen Cat#10131-035), and 1× Penn/Strep (Invitrogen 15140-122). After cell expansion, aliquots were cryo-stored in media containing 5% DMSO (Pierce Cat#20684).
(§3) One day prior to experiments media was warmed to 37° C. and the cryo-stored cells were thawed in a 37° C. water bath. The cells were then added to media (10× volume) and the mixture was centrifugated at 1000 RPM for 5 min. The supernate was removed and the cells were re-suspended in media. A sample of the cell suspension was evaluated on a Cedex XS automated cell counter (Innovatis Systems) to determine viable cells/ml. Additional media was added to the cells to achieve a final cell density of 4E5 cells/mL. The cells were then plated into 384 well PDL white solid bottom plates (Greiner, Cat#781945) at 20 μL per well using a Multidrop (Thermo Scientific). Cells were removed from Row P (location of cAMP standards). Two columns of cells were plated into a clear bottom 384 well PDL coated plate (Greiner, Cat#781944) to view confluence the day of the assay. The cell plates were lidded and stored for 15 minutes in a hood, then transferred to an incubator (37° C., 5% CO2, 95% humidity) overnight.
(§4) DMSO was added to all wells of 384 well V bottom polystyrene plate (Greiner, Cat#781280) except to columns 1 and 13, rows O and P and wells M13-M23 and N13-N23. Test compounds (60 μL, 10 mM) were added to Column 1 and 13 (A1 through N1 and A13 through L13). Test compounds were serially diluted 1/3 by transferring and mixing 20 μl sample with 40 μL DMSO.
(§5) DMSO (40 μL) was added to wells of 384 well V bottom polystyrene plate: O2 through O11, M14 through M23, N14 through N23, and O14 through O23. AM630 (also known as [6-iodo-2-methyl-1-[2-(4-morpholinyl)ethyl]-1H-indol-3-yl](4-methoxyphenyl)-methanone, Cayman Chemical, Cat#10006974) (60 μL, 10 mM) was added to O1; and 1-(2,4-dichlorophenyl)-7-[(4-fluorophenyl)methylene]-4,5,6,7-tetrahydro-N-1-piperidinyl-1H-indazole-3-carboxamide (60 μL, 10 mM) was added to N13. The control was serially diluted 1/3 by transferring and mixing 20 μl sample with 40 μL DMSO. This process resulted 11 doses per control, 10 mM to […].
(§6) Cells plated the day prior to the assay in clear bottom plates were viewed on an inverse microscope to ensure confluency in the range of 60-75%. […]

[2] = biological target: Human CB2R (Cannabanoid receptor 2) (Homo sapiens (Human), UniProt P34972); assay: CB-2 in vitro cAMP assay (HTRF); assay type: cell-based; details: mean where tested more than once
Source text: as §1, §2, §3, §4, §5, §6

Human CB2R (Cannabanoid receptor 2), sequence (P34972 whole entry): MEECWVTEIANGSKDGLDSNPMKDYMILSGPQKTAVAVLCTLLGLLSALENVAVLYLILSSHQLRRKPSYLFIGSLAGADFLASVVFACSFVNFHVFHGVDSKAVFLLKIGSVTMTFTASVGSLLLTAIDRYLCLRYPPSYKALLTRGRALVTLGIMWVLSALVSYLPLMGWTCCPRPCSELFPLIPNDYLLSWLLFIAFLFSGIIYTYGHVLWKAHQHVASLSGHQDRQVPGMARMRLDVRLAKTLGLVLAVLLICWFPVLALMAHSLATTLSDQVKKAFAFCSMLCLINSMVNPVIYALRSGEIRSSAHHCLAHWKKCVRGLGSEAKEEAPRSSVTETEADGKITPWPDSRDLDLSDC
Human CB1R (Cannabanoid receptor 1), sequence (P21554 whole entry): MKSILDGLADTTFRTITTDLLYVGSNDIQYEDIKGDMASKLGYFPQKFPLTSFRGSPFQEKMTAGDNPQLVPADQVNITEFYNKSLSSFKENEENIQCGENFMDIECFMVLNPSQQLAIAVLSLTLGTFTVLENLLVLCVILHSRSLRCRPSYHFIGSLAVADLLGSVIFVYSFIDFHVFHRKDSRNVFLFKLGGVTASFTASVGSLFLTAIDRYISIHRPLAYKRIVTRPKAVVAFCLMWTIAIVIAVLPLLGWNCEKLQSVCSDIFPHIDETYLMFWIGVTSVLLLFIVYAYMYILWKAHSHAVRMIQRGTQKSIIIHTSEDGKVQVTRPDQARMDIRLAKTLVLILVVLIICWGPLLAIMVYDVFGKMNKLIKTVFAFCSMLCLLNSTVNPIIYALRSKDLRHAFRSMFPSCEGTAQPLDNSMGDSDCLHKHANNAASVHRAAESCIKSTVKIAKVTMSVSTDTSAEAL

| Compound | EC50 [1] [nM] | EC50 [2] [nM] |
| --- | --- | --- |
| NC(=O)CC(=O)N1CCC(Nc2ncnc3ccc(C(c4ccc(Cl)cc4)c4ccc(Cl)cc4)cc23)CC1 [compound 87, 3-(4-(6-(bis(4-chlorophenyl)methyl)quinazolin-4-ylamino)piperidin-1-yl)-3-oxopropanamide] | 2920 | > 10000 |
| Clc1ccc(C(c2ccc(Cl)cc2)c2ccc3ncnc(NC4CCN(c5ccccn5)CC4)c3c2)cc1 [Compound #130, 6-(bis(4-chlorophenyl)methyl)-N-(1-(pyridin-2-yl)piperidin-4-yl)quinazolin-4-amine] | 2 | 154 |
| COc1nc(NCc2ccc(C(F)(F)F)cc2)c2cc(C(c3ccc(Cl)cc3)c3ccc(Cl)cc3)ccc2n1 [Compound #85, 6-(bis(4-chlorophenyl)methyl)-2-methoxy-N-(4-(trifluoromethyl)benzyl)quinazolin-4-amine] | 10 | > 10000 |
| O=C1CC(Nc2ncnc3ccc(C(c4ccc(Cl)cc4)c4ccc(Cl)cc4)cc23)CCN1c1ccccc1 (stereo not drawn) [Compound #102, 4-((6-(bis(4-chlorophenyl)methyl)quinazolin-4-yl)amino)-1-phenylpiperidin-2-one] | 10 | > 10000 |
| O=C(O)c1ccc(CCN2CCC(Nc3ncnc4ccc(C(c5ccc(Cl)cc5)c5ccc(Cl)cc5)cc34)CC2)cc1 [Compound #10, 4-(2-(4-((6-(bis(4-chlorophenyl)methyl)quinazolin-4-yl)amino)piperidin-1-yl)ethyl)benzoic acid] | 894 | 998 |
| O=C(O)c1ccc(CN2CCC(Nc3ncnc4ccc(C(c5ccc(Cl)cc5)c5ccc(Cl)cc5)cc34)C2)cc1 (stereo not drawn) [Compound #14, 4-((3-((6-(bis(4-chlorophenyl)methyl)quinazolin-4-yl)amino)pyrrolidin-1-yl)methyl)benzoic acid] | 1120 | 8700 |
| O=C(O)c1ccc(S(=O)(=O)N2CCC(Nc3ncnc4ccc(C(c5ccc(Cl)cc5)c5ccc(Cl)cc5)cc34)CC2)s1 [Compound #25, 5-((4-((6-(bis(4-chlorophenyl)methyl)quinazolin-4-yl)amino)piperidin-1-yl)sulfonyl)thiophene-2-carboxylic acid] | 9 | 278 |
| O=S(=O)(c1ccccn1)N1CCC(Nc2ncnc3ccc(C(c4ccc(Cl)cc4)c4ccc(Cl)cc4)cc23)CC1 [compound 111, 6-(bis(4-chlorophenyl)methyl)-N-(1-(pyridin-2-ylsulfonyl)piperidin-4-yl)quinazolin-4-amine] | 15 | 2740 |
| O=C(O)c1csc(CN2CCC(Nc3ncnc4ccc(C(c5ccc(Cl)cc5)c5ccc(Cl)cc5)cc34)CC2)c1 [Compound #18, 5-((4-((6-(bis(4-chlorophenyl)methyl)quinazolin-4-yl)amino)piperidin-1-yl)methyl)thiophene-3-carboxylic acid] | 165 | 6260 |
| O=S(=O)(NC1CCN(c2ncnc3ccc(C(c4ccc(Cl)cc4)c4ccc(Cl)cc4)cc23)C1)C(F)(F)F (stereo not drawn) [Compound #9, N-(1-(6-(bis(4-chlorophenyl)methyl)quinazolin-4-yl)pyrrolidin-3-yl)trifluoromethanesulfonamide] | 191 | 150 |
| COC(=O)CS(=O)(=O)N1CCC(Nc2ncnc3ccc(C(c4ccc(Cl)cc4)c4ccc(Cl)cc4)cc23)CC1 [Compound #110, Methyl 2-((4-((6-(bis(4-chlorophenyl)methyl)quinazolin-4-yl)amino)piperidin-1-yl)sulfonyl)acetate] | 41 | 3220 |
| O=C(O)COc1nc(NCc2cccc(C(F)(F)F)c2)c2cc(C(c3ccc(Cl)cc3)c3ccc(Cl)cc3)ccc2n1 [compound 51, 2-((6-(bis(4-chlorophenyl)methyl)-4-((3-(trifluoromethyl)benzyl)amino)quinazolin-2-yl)oxy)acetic acid] | 583 | 3340 |
| NC(=O)c1cccc(CNc2ncnc3ccc(C(c4ccc(Cl)cc4)c4ccc(Cl)cc4)cc23)c1 [Compound #57, 3-(((6-(bis(4-chlorophenyl)methyl)quinazolin-4-yl)amino)methyl)benzamide] | 215 | 4950 |
| O=C(NCCO)c1ccc(N2CCC(Nc3ncnc4ccc(C(c5ccc(Cl)cc5)c5ccc(Cl)cc5)cc34)CC2)cc1 [Compound #84, 4-(4-((6-(bis(4-chlorophenyl)methyl)quinazolin-4-yl)amino)piperidin-1-yl)-N-(2-hydroxyethyl)benzamide] | 26 | 326 |
| OCCCCOc1nc(NCc2cccc(C(F)(F)F)c2)c2cc(C(c3ccc(Cl)cc3)c3ccc(Cl)cc3)ccc2n1 [Compound #53, 4-((6-(bis(4-chlorophenyl)methyl)-4-((3-(trifluoromethyl)benzyl)amino)quinazolin-2-yl)oxy)butan-1-ol] | 42 | 3700 |
| N#Cc1ccc(C(c2ccc(Cl)cc2)c2ccc3ncnc(NC4CCN(S(=O)(=O)C(F)(F)F)CC4)c3c2)cc1 (stereo not drawn) [Compound #19, 4-((4-chlorophenyl)(4-((1-((trifluoromethyl)sulfonyl)piperidin-4-yl)amino)quinazolin-6-yl)methyl)benzonitrile] | 6 | 157 |

Continued, values first:

| EC50 [1] [nM] | EC50 [2] [nM] | Compound |
| --- | --- | --- |
| 14 | 4430 | COC(=O)c1ccc(C(=O)N2CCC(Nc3ncnc4ccc(C(c5ccc(Cl)cc5)c5ccc(Cl)cc5)cc34)CC2)cc1 [Compound #73, methyl 4-(4-((6-(bis(4-chlorophenyl)methyl)quinazolin-4-yl)amino)piperidine-1-carbonyl)benzoate] |
| 14 | 3640 | NC(=O)c1cccc(CN2CCC(Nc3ncnc4ccc(C(c5ccc(Cl)cc5)c5ccc(Cl)cc5)cc34)CC2)c1 [Compound #36, 3-((4-((6-(bis(4-chlorophenyl)methyl)quinazolin-4-yl)amino)piperidin-1-yl)methyl)benzamide] |
| 446 | 9100 | NC(=O)c1ccc(CNc2ncnc3ccc(C(c4ccc(Cl)cc4)c4ccc(Cl)cc4)cc23)cc1 [compound 56, 4-((6-(bis(4-chlorophenyl)methyl)quinazolin-4-ylamino)methyl)benzamide] |
| 1 | 8490 | OC1(c2ccccc2)CCC(Nc2ncnc3ccc(C(c4ccc(Cl)cc4)c4ccc(Cl)cc4)cc23)CC1 (stereo not drawn) [Compound #99, 4-((6-(bis(4-chlorophenyl)methyl)quinazolin-4-yl)amino)-1-phenylcyclohexanol] |
| 16 | 9400 | O=S(=O)(CCO)N1CCC(Nc2ncnc3ccc(C(c4ccc(Cl)cc4)c4ccc(Cl)cc4)cc23)CC1 [Compound #78, 2-((4-((6-(bis(4-chlorophenyl)methyl)quinazolin-4-yl)amino)piperidin-1-yl)sulfonyl)ethanol] |
| 173 | > 14000 | CN(Cc1ccc(C(F)(F)F)cc1)c1ncnc2ccc(C(c3ccc(Cl)cc3)c3ccc(Cl)cc3)cc12 [Compound #132, 6-(bis(4-chlorophenyl)methyl)-N-methyl-N-(4-(trifluoromethyl)benzyl)quinazolin-4-amine] |
| 44 | 5940 | FC(F)(F)c1ccc(C2(Nc3ncnc4ccc(C(c5ccc(Cl)cc5)c5ccc(Cl)cc5)cc34)CC2)cc1 [compound 125, 6-(bis(4-chlorophenyl)methyl)-N-(1-(4-(trifluoromethyl)phenyl)cyclopropyl) quinazolin-4-amine] |
| 30 | > 10000 | COCCOc1nc(NCc2ccc(C(F)(F)F)cc2)c2cc(C(c3ccc(Cl)cc3)c3ccc(Cl)cc3)ccc2n1 [Compound #91, 6-(bis(4-chlorophenyl)methyl)-2-(2-methoxyethoxy)-N-(4-(trifluoromethyl)benzyl)quinazolin-4-amine] |
